# Reference: patent publication US12053465B2, “KCC2 expression enhancing compounds and uses thereof” (Whitehead Institute for Biomedical Research, priority 2017, dated 2024)
# Columns and labels:
# human RTT neurons [1] = assay: mEPSC whole-cell patch-clamp recording in cultured human RTT neurons; type: cell-based; conditions: cultured human RTT neurons
# Text: (§1) Moreover, a reduction in the number or the strength of excitatory glutamatergic synapses in RTT neurons has been observed in postmortem RTT patient brain samples (30), mouse models of RTT (53), and human stem cell-derived RTT neurons (54). Electrophysiology recording was utilized to assess whether KEECs could rescue the deficits in EGABA and excitatory synaptic transmission of RTT neurons. […] We further investigated whether the beneficial effect of KEECs is a direct result of the increases in neuronal KCC2 gene expression. […] Deficits in a number of morphological measurements, including nuclei size and neurite complexity and branching, are hallmarks of RTT neurons (54-56). […] To validate the morphological measurements, electrophysiological measurements of the neuronal membrane capacitance (Cm), an indicator of neuronal cell size (57) that is reduced in RTT neurons, were conducted.
# (§2) Functionally mature human neuron cultures were obtained by seeding human WT or isogenic RTT NPCs on a layer of primary mouse astrocyte culture as previously described (57). In the cultured WT human neurons, KCC2 expression reaches mature level between 2-3 months (7). We therefore treated the WT or RTT human neurons 8-12 weeks in culture, with compounds for a duration of two weeks before conducting whole-cell patch-clamp recording. The extracellular bath solution, that perfused the recording chamber, consists of (in mM): 120 NaCl, 30 glucose, 25 HEPES, 5 KCl, 2 CaCl2, 1 MgCl2. The pH was adjusted to 7.3 with NaOH. The high-chloride internal pipette solution consists of (in mM): 147 KCl, 5 Na-phosphocreatine, 2 EGTA, 10 HEPES, 4 MgATP, and 0.5 Na2GTP; the pH 7.3 was adjusted with KOH. To record mini EPSC, the membrane potential was held at −70 mV, and 0.5 μM of TTX and 50 μM Picrotoxin were applied with bath solution to block action potential and GABAergic synaptic transmission.
# To evoke GABA response, a pipette filled with 100 μM GABA solution was positioned 5-10 μm away from the neuronal cell body. Air pulses at the pressure of 10 p.s.i. and duration of 100 ms were generated with a Picrospritzer (Parker Instrumentation) to puff GABA solution onto neuronal cell body. Neuronal response to GABA puffs were recorded at different membrane holding potentials from −90 mV to +30 mV, and the EGABA values were calculated with linear regression. Electrophysiological signals were recorded with Multiclamp 700A patch-clamp amplifier and data were collected with Clamp 9 software (Molecular Devices, Palo Alto, CA), sampled at 10 kHz and filtered at 1 KHz. Off-line data analyses of mEPSC synaptic events were performed with MiniAnalysis software (Synaptosoft, Decator, GA). All experiments were performed at room temperature. A sample size of 5-8 neurons was used for EGABA measurements, while a sample size of 14-19 neurons was used for mEPSC measurements. All data were presented as mean±SEM. ANOVA test followed by the Bonferroni correction were used for statistical analysis. The Kolmogorov-Smirnov test was employed to compare the cumulative distribution between two datasets.
# human RTT neurons [2] = assay: Membrane capacitance (Cm) of cultured human RTT neurons; type: cell-based; conditions: cultured human RTT neurons; vs DMSO or MeBIO control
# Text: as §1, §2
# KCC2 expression [3] = assay: Western blot of KCC2 in organotypic mouse brain slices; type: cell-based; conditions: organotypic neonatal mouse brain slices, treated 7 days, vs DMSO, MeBIO or medium-only control
# KCC2 expression [4] = assay: Western blot of KCC2 in cultured WT human neurons; type: cell-based
# [5] = tested on: KCC2 expression (KCC2-2A-luciferase reporter); assay: KCC2-2A-luciferase reporter compound screening with RTT KCC2 reporter neurons; type: cell-based, human; conditions: MECP2-null RTT human KCC2 reporter neurons; LINCS, SMART, ICCB libraries; Luc/CTG normalized to in-plate DMSO; hit = B score >3
# Description: The RTT KCC2-2A-luciferase reporter neurons were treated with the test compounds from the LINCS kinase inhibitor library and IRSF SMART compound library and incubated before being lysed. The cell lysate was divided into two parts to measure luciferase signal (KCC2 translation) and Cell-Titer Glow (CTG, amount of ATP). The luciferase signal was normalized to CTG for each well, and the Luc/CTG ratio was normalized to the in-plate DMSO negative control to calculate fold change ratio.
# Additional screens for reporter activation in the MECP2-null RTT human KCC2 reporter neurons (isogenic to the WT reporter cells used above) were performed with the LINCS and SMART libraries as well as the ICCB known bioactive library and identified hits as compounds with B score >3.
# The cells were dissociated with Accutase and resuspended in 10 ml neuronal differentiation medium to count cells. The cells were then diluted to the final density of 200,000 to 500,000 cells/ml. Matrigel was added to the cell suspension at a dilution ratio of 1:300 to promote cell adhesion after plating. AraC was added to cell suspension at the concentration of 2 μM to inhibit cell division. The cells were plated into 96-well plates with an automated cell seeding machine using the following protocol: The neuron flask was washed with PBS. The neurons were digested off the plate with Accutase for 30 minutes at 37° C. Next, the dissociated cells were collected and spun down at 750 rpm for 5 minutes. The cell pellet was dissociated by gentle trituration with P1000 pipet and the cells were resuspended with 10 ml of neuronal medium. Then, the cells were filtered through a 40 μm cell strainer (Falcon) to get rid of clumps. The resulting single-cell suspension was counted using a Countess automated cell counter (Invitrogen Countess Automated Cell Counter, Catalog no. C10227). The neurons were resuspended with neuronal medium to 10× of the destination density (100,000 cells to 400,000 cells per ml). The cells were plated with a multichannel pipette, or proceeded to the machine-plating protocol described below:
# The day after cell seeding, small molecule compounds from the IRSF (International Rett Syndrome Foundation) library were prepared at a concentration of 1 mM and dispensed into a blank V-bottomed test plates at 2 μl per well. Compound solvent DMSO was included in every plate as control. Using a liquid handling robot, about 80 μl of culture medium were discarded. Neuronal medium in the volume of 200 μl was added to the V-bottom test plate that contained 2 μl of 1 mM compounds, and mixed with compounds by pipetting up-and-down 3 times. The medium that contained the 10 μM compounds was then applied to the neuronal cell culture and incubated for 2 weeks before cell lysis and luciferase assay were performed.
# (§3) The cells were dissociated with Accutase, resuspended in 10 ml neuronal differentiation medium to count cells. the final cell seeding density was 20 k-40 k cells per well for 96-well plates, and ˜10 k cells per well for 384-well plates. Matrigel was added to the cell suspension at a dilution ratio of 1:300 to promote cell adhesion after plating. AraC were added to the cell suspension at the concentration of 0.5 μM to inhibit astroglial cell division. The cells were dispensed into 96-well or 384-well plates (Coming) using a BioTek EL406 plate dispenser. […] The neurons were incubated with the compounds at 37° C./5% CO2 for a week before the luciferase assay.
# The cells used for luciferase assay were KCC2 reporter neurons differentiated for 4 weeks, and treated with drug in 96-well format for 2 weeks. Cell density was between 20 k-40 k cells per well.
# On the day of the luciferase assay, the cells were washed with PBS for two times, and 100 μl of cell lysis buffer was applied to the washed cells. The cell plates were transferred to a rocker to shake for 10 minutes in order to fully lyse the cells.
# [6] = tested on: KCC2 expression (KCC2-2A-luciferase reporter); assay: KCC2-2A-luciferase reporter compound screening with wild type KCC2 reporter neurons; type: cell-based; conditions: WT human KCC2 reporter neurons; LINCS 0.5 μM, IRSF/SMART and ICCB 10 μM, one week; Luc/CTG normalized to in-plate DMSO; hit = B score >3
# Text: In addition, CRISPR/Cas9 genome editing technology was utilized to insert a 2A-luciferase reporter gene directly before the stop codon of the endogenous KCC2 locus in human ES cells, thus creating wild type (WT) cells isogenic to the MECP2-null RTT human KCC2 reporter neurons. KCC2 expression reporter human neurons were differentiated from the gene-targeted ES cells and utilized as the substrate for unbiased compound screening (FIG. 6A; see also FIG. 1A).
# Gene-targeted KCC2 reporter cells were used in a HTS pipeline to screen for small molecule compounds that enhance KCC2 gene expression (FIG. 1B; note that reporter neurons were adapted to 384 well format for some screens, and the same workflow was used both for WT KCC2 reporter neurons and RTT KCC2 reporter neurons). Six replicate screens were performed in WT KCC2 reporter neurons using the LINCS and SMART libraries as well as the ICCB known bioactive library (FIG. 6B).
# as §3
# For some screens, on the day of the luciferase assay, the cells were washed with PBS three times using a BioTek EL406 plate washer. Cell lysis buffer (Promega, E1941, 1:5 diluted with water) was added at a volume of 100 μl per well for 96-well plates and 30 μl per well for 384-well plates, and incubated at room temperature for 10 minutes to lyse the cells. A fraction of the cell lysate (30 ul for 96-well, 5 ul for 384-well) was transferred to a new white, opaque plate and Cell Titer-Glo (CTG, Promega, G7572, diluted 2:5 in water) was added and incubated for 20 minutes at room temperature. CTG measures cellular ATP levels as a surrogate for cell viability. The reporter luciferase signal was assayed in the original source plate using Bright-Glo reagent per the manufacturer's protocol (Promega, E1501, 10 ul for 96-well plates, 3 ul for 384-well plates). Assay readouts were performed on a Tecan M1000 Infinite plate reader. For data analysis, the luciferase signal was normalized to the CTG signal to control for number of live cells per well. The Luc/CTG ratio data were then normalized to the in-plate DMSO control to calculate the signal induction fold change. Screening data were processed with CellHTS2 software package to calculate B-score (94)
# immature mouse neurons = assay: Gramicidin-perforated patch recording of EGABA in DIV6-7 immature mouse neurons; type: cell-based
# KCC2 expression [7] = assay: Western blot of KCC2 in cultured human RTT neurons; type: cell-based; conditions: cultured human RTT neurons; Western blot
# Description: Protein samples were collected from cultured brain slices or cultured neurons in 12-well format with RIPA lysis buffer (in mM: 150 NaCl, 25 Tris-HCl, 1 EDTA, 1% NP-40, 1% sodium deoxycholate, 0.1% SDS, with protein kinase inhibitor and protease inhibitor, pH adjusted to 7.6). A sonication step was applied to homogenize tissue and extract protein, followed by a 10 minute centrifugation at 4° C. […] The PVDF membrane was blocked for 30 minutes with 5% milk in TBS+0.1% Tween 20 (TBST), and incubated overnight at 4° C. with primary antibodies diluted in TBST-milk at the following concentrations: KCC2 (1:2000, Millipore), NKCC1 (1:1000, Iowa Hybridoma bank), α-Tubulin (1:4000, Abcam), GAPDH (1:3000, Abcam), Actin (1:2000, Sigma Aldrich #A2066). The membrane was rinsed with TBST three times to wash off excess antibodies, and then incubated in secondary HRP antibodies in TBST-milk at 1:5000 concentration.
# The PVDF membrane was then stripped using the Re-blot plus strong solution (Millipore), and re-immunoblotted for NKCC1 (˜150 kDa) to acquire KCC2/NKCC1 ratio. The area and intensity of protein signal was determined using ImageJ. The relative KCC2 and NKCC1 expression were calculated by normalizing protein signal to GAPDH or Tubulin loading control.
structure (smiles),measurement,setting,value
CN1C(=O)/C(=C2\Nc3ccccc3\C2=N/O)c2ccc(Br)cc21 [MeBIO],frequency of mEPSCs,human RTT neurons [1],failed to rescue synaptic deficits in RTT neurons
same,membrane capacitance (Cm),human RTT neurons [2],failed to change Cm
same,KCC2 protein level,KCC2 expression [3],does not alter KCC2 expression
same,KCC2 expression,"KCC2 expression [4]; cultured WT human neurons (WIBR1), Western blot",failed to activate KCC2 expression
"CC(C)(O)[C@H]1O[C@H]2CC[C@@]3(C)[C@@](O)(CC[C@H]4Cc5c([nH]c6ccccc56)[C@@]43C)C2=CC1=O [Paxilline, (2R,4bS,6aS,12bS,12cR,14aS)-5,6,6a,7,12,12b,12c,13,14,14a-Decahydro-4b-hydroxy-2-(1-hydroxy-1-methylethyl)-12b,12c-dimethyl-2H-pyrano[2″,3″:5',6']benz[1',2':6,7]indeno[1,2-b]indol-3(4bH)-one]",B Score,[5],4.1
same,B Score,[6],4.1
"C[C@H](NCc1ccc(OCc2cccc(F)c2)cc1)C(N)=O [Safinamide, (2S)-2-[[4-[(3-fluorophenyl)methoxy]phenyl]methylamino] propanamide]",B Score,[5],4.82
same,B Score,[6],4.82
"Nc1cccc(-c2cc3c(Oc4cccc(O)c4)ncnc3[nH]2)c1 [TWS-119, 3-[6-(3-Amino-phenyl)-7H-pyrrolo[2,3,-d]pyrimidin-4-yloxy]-phenol]",EGABA after treatment,"immature mouse neurons; DIV6-7 immature mouse neurons, untreated about −50 mV",about −70 mV
same,significant hyperpolarizing shift in EGABA,immature mouse neurons; DIV6 cultured immature mouse neurons,induces significant hyperpolarizing shift in EGABA
same,B Score,[5],3.64
same,KCC2 expression,KCC2 expression [7],significant increase in KCC2 expression
same,increase of KCC2 expression,"KCC2 expression [4]; WT neurons, 0.03 μM",more than two-fold
